Converted amounts (≈) assume the structure as drawn. Like-named read-outs stand apart in the source and are kept apart here. Starred links: 1 amine or outer side, 2 acyl side, 3 side chain; linkers in the order of their positions; H or OH if unused. Positions of bridges follow the written chain, without caps; N, C: chain ends. Residues, ends and D or L forms follow the SMILES beside them. *: point of attachment. C20 diacid = O=C(O)CCCCCCCCCCCCCCCCCCC(=O)*; γGlu = O=C(O)[C@H](CCC(=O)[*:2])N[*:1]
Tests used:
[1] = molecular target: T1, human amylin receptor (amylin 3(a) receptor: human calcitonin receptor + RAMP-3) (Homo sapiens, UniProt O60896+P30988); experiment: Assay (II)a functional CRE-luciferase assay, human amylin receptor; format: cell-based
T1 construct: expressed in transfected cells; host or cells: BHK570
T1 sequence (P30988 25-474): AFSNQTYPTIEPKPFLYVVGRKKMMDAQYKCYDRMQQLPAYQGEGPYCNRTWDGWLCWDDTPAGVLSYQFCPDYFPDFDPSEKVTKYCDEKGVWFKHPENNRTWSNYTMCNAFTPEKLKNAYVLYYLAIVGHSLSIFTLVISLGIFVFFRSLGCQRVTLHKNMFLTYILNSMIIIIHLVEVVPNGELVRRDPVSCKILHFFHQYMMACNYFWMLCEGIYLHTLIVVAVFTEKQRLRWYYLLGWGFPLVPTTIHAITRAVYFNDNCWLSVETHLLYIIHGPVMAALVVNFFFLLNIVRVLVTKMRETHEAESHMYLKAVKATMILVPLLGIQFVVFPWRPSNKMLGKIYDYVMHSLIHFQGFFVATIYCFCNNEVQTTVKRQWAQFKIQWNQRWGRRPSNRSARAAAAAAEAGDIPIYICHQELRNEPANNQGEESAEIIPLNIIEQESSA
T1 sequence (O60896 24-148 partner): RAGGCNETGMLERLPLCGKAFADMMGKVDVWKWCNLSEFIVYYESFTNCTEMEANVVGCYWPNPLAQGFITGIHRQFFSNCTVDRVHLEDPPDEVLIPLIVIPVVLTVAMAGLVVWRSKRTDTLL

[2] = molecular target: T2, human calcitonin receptor (Homo sapiens, UniProt P30988); experiment: Assay (II)a functional CRE-luciferase assay, human calcitonin receptor; format: cell-based
T2 construct: expressed in transfected cells; host or cells: BHK570
T2 sequence (P30988 25-474): T1 sequence (P30988 25-474)

[3] = Assay (III) ThT fibrillation assay for physical stability; format: physicochemical; conditions: ThT fibrillation assay
Procedure, shortened: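 Freshly prepared formulations, pH-adjusted, with 1 μM ThT; four or eight replicates incubated at 37 °C under 960 rpm orbital shaking. Fluorescence (ex 444/em 485 nm) read every 20 min; […]. Peptide concentration measured by RP-HPLC before and after the run.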

[4] = Assay (IV) determination of solubility; format: physicochemical
Procedure, shortened: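 Polypeptide in water (~500 nmol/ml) mixed 1:1 with 100 mM glycylglycine (pH 3.0–5.0) or bistrispropane (pH 6.0–8.0) buffers. Held 18 hours at room temperature, then centrifuged. Polypeptide remaining in solution quantified by HPLC.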

[5] = Table 2, BHK amylin 3(a)-receptor/CRE-luc cells
[6] = Table 7, human calcitonin (CTa) receptor
[7] = bistrispropane buffer, pH 6, pH 6.0, read-out: Solubility pH 6.0
[8] = bistrispropane buffer, pH 6.5, pH 6.5, read-out: Solubility pH 6.5
[9] = bistrispropane buffer, pH 7, pH 7.0, 18 hours at room temperature, Table 3, read-out: Solubility pH 7.0
[10] = bistrispropane buffer, pH 7, pH 7.0, read-out: Solubility pH 7.0
[11] = bistrispropane buffer, pH 7.5, pH 7.5, read-out: Solubility pH 7.5
[12] = bistrispropane buffer, pH 8, pH 8.0, read-out: Solubility pH 8.0
[13] = glycylglycine buffer, pH 3, pH 3.0, read-out: Solubility pH 3.0
[14] = glycylglycine buffer, pH 4, pH 4.0, 18 hours at room temperature, Table 2, read-out: Solubility pH 4.0
[15] = glycylglycine buffer, pH 4, pH 4.0, read-out: Solubility pH 4.0
[16] = glycylglycine buffer, pH 5, pH 5.0, read-out: Solubility pH 5.0

| SMILES | EC50 [1, 5] [nM] | EC50 [2, 6] [nM] | ThT pH 4.0 lag time (h) [3] [h] | solubility at 18 h [4, 7] [µM] | solubility at 18 h [4, 8] [µM] | solubility at 18 h [4, 9] [µM] | solubility at 18 h [4, 10] [µM] | solubility at 18 h [4, 11] [µM] | solubility at 18 h [4, 12] [µM] | solubility at 18 h [4, 13] [µM] | solubility at 18 h [4, 14] [µM] | solubility at 18 h [4, 15] [µM] | solubility at 18 h [4, 16] [µM] | ThT pH 4.0 lag time [3] [h] | EC50 ([1]; Table 11) [nM] | EC50 ([2]; Table 11, read-out: CTa receptor human EC50) [nM] | solubility at 18 h ([4]; pH 8.0, read-out: Solubility pH 8.0) [µM] |
| --- | --- | --- | --- | --- | --- | --- | --- | --- | --- | --- | --- | --- | --- | --- | --- | --- | --- |
| CC[C@H](C)[C@H](NC(=O)[C@@H]1CCCN1C(=O)CNC(=O)[C@H](Cc1ccccc1)NC(=O)[C@H](CC(N)=O)NC(=O)[C@H](CC(N)=O)NC(=O)[C@H](CO)NC(=O)[C@H](CO)NC(=O)[C@H](Cc1c[nH]cn1)NC(=O)[C@@H](NC(=O)[C@H](CC(C)C)NC(=O)[C@H](Cc1ccccc1)NC(=O)[C@H](CCC(=O)O)NC(=O)[C@H](C)NC(=O)[C@H](CC(C)C)NC(=O)[C@H](CCCNC(=N)N)NC(=O)[C@H](CCC(N)=O)NC(=O)[C@@H](NC(=O)[C@H](C)NC(=O)[C@@H]1CSSC[C@H](NC(=O)CC[C@H](NC(=O)CCCCCCCCCCCCCCCCCCC(=O)O)C(=O)O)C(=O)N[C@@H](CC(N)=O)C(=O)N[C@@H]([C@@H](C)O)C(=O)N[C@@H](C)C(=O)N[C@@H]([C@@H](C)O)C(=O)N1)[C@@H](C)O)C(C)C)C(=O)N[C@@H](CC(C)C)C(=O)N1CCC[C@H]1C(=O)N1CCC[C@H]1C(=O)N[C@H](C(=O)N[C@@H](CC(N)=O)C(=O)N[C@H](C(=O)NCC(=O)N[C@@H](CO)C(=O)N[C@@H](CC(N)=O)C(=O)N[C@H](C(=O)N1CCC[C@H]1C(N)=O)[C@@H](C)O)C(C)C)[C@@H](C)O [Example 108, N-alpha-[(S)-4-Carboxy-4-(19-carboxynonadecanoylamino)butyryl]-[des1,Glu14,Pro37]-pramlintide] ({C20 diacid-γGlu}-CNTATCATQRLAEFLVHSSNNFGPILPPTNVGSNTP-NH2; disulfide 1-6 (inferred)) | 0.088 | 0.0735 | 2.7 | 193 (≈ 815 µg/mL) | > 200 | > 200 | > 200 | > 200 | > 200 | > 200 | > 200 | > 200 | > 200 | – | – | – | – |
| CC[C@H](C)[C@H](NC(=O)[C@@H]1CCCN1C(=O)CNC(=O)[C@H](Cc1ccccc1)NC(=O)[C@H](CC(N)=O)NC(=O)[C@H](CC(N)=O)NC(=O)[C@H](CO)NC(=O)[C@H](CO)NC(=O)[C@H](Cc1c[nH]cn1)NC(=O)[C@H](Cc1c[nH]cn1)NC(=O)[C@H](CC(C)C)NC(=O)[C@H](Cc1ccccc1)NC(=O)[C@H](CCC(=O)O)NC(=O)[C@H](C)NC(=O)[C@H](CC(C)C)NC(=O)[C@H](CCCNC(=N)N)NC(=O)[C@H](CCC(N)=O)NC(=O)[C@@H](NC(=O)[C@H](C)NC(=O)[C@@H]1CSSC[C@H](NC(=O)[C@H](CCCNC(=N)N)NC(=O)CNC(=O)CC[C@H](NC(=O)CCCCCCCCCCCCCCCCCCC(=O)O)C(=O)O)C(=O)N[C@@H](CC(N)=O)C(=O)N[C@@H]([C@@H](C)O)C(=O)N[C@@H](C)C(=O)N[C@@H]([C@@H](C)O)C(=O)N1)[C@@H](C)O)C(=O)N[C@@H](CC(C)C)C(=O)N1CCC[C@H]1C(=O)N1CCC[C@H]1C(=O)N[C@H](C(=O)N[C@@H](CC(N)=O)C(=O)N[C@H](C(=O)NCC(=O)N[C@@H](CO)C(=O)N[C@@H](Cc1c[nH]cn1)C(=O)N[C@H](C(=O)N[C@@H](Cc1ccc(O)cc1)C(N)=O)[C@@H](C)O)C(C)C)[C@@H](C)O [Example 100, N-alpha-[(S)-4-Carboxy-4-(19-carboxynonadecanoylamino)butyryl]-Gly-[Arg1,Glu14,His17,His35]-pramlintide] ({C20 diacid-γGlu}-GRCNTATCATQRLAEFLHHSSNNFGPILPPTNVGSHTY-NH2; disulfide 3-8 (inferred)) | 0.0675 | 0.0895 | 26 | > 200 | 28 (≈ 128 µg/mL) | – | 9 (≈ 41.1 µg/mL) | 30 (≈ 137 µg/mL) | 95 (≈ 434 µg/mL) | > 200 | > 200 | > 200 | > 200 | 26 | – | – | – |
| CC[C@H](C)[C@H](NC(=O)[C@@H]1CCCN1C(=O)CNC(=O)[C@H](Cc1ccccc1)NC(=O)[C@H](CC(N)=O)NC(=O)[C@H](CC(N)=O)NC(=O)[C@H](CO)NC(=O)[C@H](CO)NC(=O)[C@H](Cc1c[nH]cn1)NC(=O)[C@@H](NC(=O)[C@H](CC(C)C)NC(=O)[C@H](Cc1ccccc1)NC(=O)[C@H](CC(N)=O)NC(=O)[C@H](C)NC(=O)[C@H](CC(C)C)NC(=O)[C@H](CCCNC(=N)N)NC(=O)[C@H](CCC(N)=O)NC(=O)[C@@H](NC(=O)[C@H](C)NC(=O)[C@@H]1CSSC[C@H](NC(=O)[C@H](CCCNC(=N)N)NC(=O)CNC(=O)CC[C@H](NC(=O)CCCCCCCCCCCCCCCCCCC(=O)O)C(=O)O)C(=O)N[C@@H](CC(N)=O)C(=O)N[C@@H]([C@@H](C)O)C(=O)N[C@@H](C)C(=O)N[C@@H]([C@@H](C)O)C(=O)N1)[C@@H](C)O)C(C)C)C(=O)N[C@@H](CC(C)C)C(=O)N1CCC[C@H]1C(=O)N1CCC[C@H]1C(=O)N[C@H](C(=O)N[C@@H](CC(N)=O)C(=O)N[C@H](C(=O)NCC(=O)N[C@@H](CO)C(=O)N[C@@H](Cc1c[nH]cn1)C(=O)N[C@H](C(=O)N[C@@H](Cc1ccc(O)cc1)C(N)=O)[C@@H](C)O)C(C)C)[C@@H](C)O [Example 99, N-alpha-[(S)-4-Carboxy-4-(19-carboxynonadecanoylamino)butyryl]-Gly-[Arg1,His35]-pramlintide] ({C20 diacid-γGlu}-GRCNTATCATQRLANFLVHSSNNFGPILPPTNVGSHTY-NH2; disulfide 3-8 (inferred); C-terminus assumed) | – | – | 1.7 | 2 (≈ 9.02 µg/mL) | 1 (≈ 4.51 µg/mL) | – | 1 (≈ 4.51 µg/mL) | 1 (≈ 4.51 µg/mL) | – | > 200 | – | > 200 | > 200 | – | 0.045 | 0.0875 | 1 (≈ 4.51 µg/mL) |
| CC[C@H](C)[C@H](NC(=O)[C@@H]1CCCN1C(=O)CNC(=O)[C@H](Cc1ccccc1)NC(=O)[C@H](CC(N)=O)NC(=O)[C@H](CCC(N)=O)NC(=O)[C@H](CO)NC(=O)[C@H](CO)NC(=O)[C@H](Cc1c[nH]cn1)NC(=O)[C@H](Cc1c[nH]cn1)NC(=O)[C@H](CC(C)C)NC(=O)[C@H](Cc1ccccc1)NC(=O)[C@H](CCC(=O)O)NC(=O)[C@H](C)NC(=O)[C@H](CC(C)C)NC(=O)[C@H](CCCNC(=N)N)NC(=O)[C@H](CCC(N)=O)NC(=O)[C@@H](NC(=O)[C@H](C)NC(=O)[C@@H]1CSSC[C@H](NC(=O)[C@H](CCCCN)NC(=O)[C@H](CCC(=O)O)NC(=O)CC[C@H](NC(=O)CCCCCCCCCCCCCCCCCCC(=O)O)C(=O)O)C(=O)N[C@@H](CC(N)=O)C(=O)N[C@@H]([C@@H](C)O)C(=O)N[C@@H](C)C(=O)N[C@@H]([C@@H](C)O)C(=O)N1)[C@@H](C)O)C(=O)N[C@@H](CC(C)C)C(=O)N1CCC[C@H]1C(=O)N1CCC[C@H]1C(=O)N[C@H](C(=O)N[C@@H](CC(N)=O)C(=O)N[C@H](C(=O)NCC(=O)N[C@@H](CO)C(=O)N[C@@H](Cc1c[nH]cn1)C(=O)N[C@H](C(=O)N[C@@H](Cc1ccc(O)cc1)C(N)=O)[C@@H](C)O)C(C)C)[C@@H](C)O [Example 129, N-alpha-[(S)-4-Carboxy-4-(19-carboxynonadecanoylamino)butyryl]-Glu-[Glu14,His17,Gln21,His35]-pramlintide] ({C20 diacid-γGlu}-EKCNTATCATQRLAEFLHHSSQNFGPILPPTNVGSHTY-NH2; disulfide 3-8 (inferred); C-terminus assumed) | 0.391 | 0.247 | 24 | > 200 | 194 (≈ 897 µg/mL) | > 200 | > 200 | > 200 | > 200 | > 200 | > 200 | > 200 | > 200 | – | – | – | – |

Source: patent publication US8722849B2, “Polypeptides” (Novo Nordisk A/S, priority 2011, dated 2014)
